Results taken from patent US10753941B2, “Biocompatible nanoparticles with aggregation induced emission characteristics as fluorescent bioprobes and methods of using the same for in vitro and in vivo imaging” (The Hong Kong University of Science and Technology, priority 2011, dated 2020).
Like-named read-outs stand apart in the source and are kept apart here. Residues, ends and D or L forms follow the SMILES beside them. *: point of attachment. X1 = O=C(CCCc1cn(Cc2ccc(C(=C(c3ccccc3)c3ccccc3)c3ccccc3)cc2)nn1)*

Legend:
caspase-7 = biological target: T1, caspase-7 (Homo sapiens, UniProt P55210); assay: Caspase turn-on assay of AcDEVDK-TPE; assay type: biochemical
T1 construct: purchased R&D Systems
T1 sequence (P55210 24-198 limits assumed): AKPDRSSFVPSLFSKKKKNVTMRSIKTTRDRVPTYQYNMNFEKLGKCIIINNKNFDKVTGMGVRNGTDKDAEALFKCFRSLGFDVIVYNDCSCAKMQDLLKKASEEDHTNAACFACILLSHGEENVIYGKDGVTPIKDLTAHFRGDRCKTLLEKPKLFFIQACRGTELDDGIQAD
T1 sequence (P55210 207-303 limits assumed): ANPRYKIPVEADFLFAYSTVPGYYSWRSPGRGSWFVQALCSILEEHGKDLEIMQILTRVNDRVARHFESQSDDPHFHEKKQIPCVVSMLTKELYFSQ
Text: (§1) Cleavage of the peptide substrates AcDEVDK-TPE by caspase-3 or caspase-7 was monitored in quartz cells or in black flatbottom polypropylene 384-well plates (Nunc, USA). The corresponding concentrations of substrate and enzymes were used for each assay. Enzymatic cleavage of the substrates was monitored by fluorescence increase (excitation and emission wavelengths at 312 nm and 480 nm respectively) with on a Perkin-Elmer LS 55 spectrofluorometer or a Synergy TM 2 multi-mode microplate reader (Biotek Instruments).

caspase-3 [1] = biological target: T2, caspase-3 (Homo sapiens, UniProt P42574); assay: Caspase turn-on assay of AcDEVDK-TPE; assay type: biochemical
T2 construct: purchased R&D Systems
T2 sequence (P42574 29-175 limits assumed): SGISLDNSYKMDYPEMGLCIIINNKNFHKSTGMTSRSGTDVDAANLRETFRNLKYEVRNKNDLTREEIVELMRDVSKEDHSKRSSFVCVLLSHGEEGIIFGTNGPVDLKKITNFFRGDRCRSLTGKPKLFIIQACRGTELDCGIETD
T2 sequence (P42574 176-277 limits assumed): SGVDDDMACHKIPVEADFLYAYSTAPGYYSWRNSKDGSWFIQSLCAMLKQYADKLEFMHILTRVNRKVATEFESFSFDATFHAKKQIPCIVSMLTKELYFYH
Text: as §1

[2] = Water solubility / aggregation of probes in water (LLS, PL); assay type: physicochemical; settings: for average diameter of nanoaggregates in water (LLS): DMSO/water v/v=1:199, 10 μM
Text: FIG. 32A illustrates the UV-vis absorption spectra of BATPS (5) and TPS-2cRGD. Both have a similar absorption profile with the maximum at 356 nm. The corresponding photoluminescence (PL) spectra are shown in FIG. 32B, along with the photographs taken under UV irradiation. It is known that AIE fluorogens are virtually non-fluorescent in good solvents but emit intensely when aggregated in poor solvents.
It is well known that AIE dye is virtually non-luminescent in good solvents but emits intensely when aggregated in its poor solvents. […] The excited states are readily annihilated by the intramolecular rotations of phenyl rings. Therefore, very low fluorescence was observed.

HeLa cells = assay: Apoptosis imaging in live cells with AcDEVDK-TPE; assay type: cell-based, human; settings: 5 μM probe
Procedure: The cells were cultured in the chambers (LAB-TEK, Chambered Coverglass System) at 37° C., respectively. After 80% confluence, the adherent cells were washed twice with 1×PBS buffer. The AcDEVD-TPE solution (5 μM, 0.3 mL) was then added to the chamber. After incubation for 2 h at 37° C., cells were washed two times with 1×PBS buffer. To induce apoptosis, cells were incubated with 1.0 μM of staurosporine for 1 hr and then imaged immediately by confocal laser scanning microscope (CLSM, Zeiss LSM 410, Jena, Germany) with imaging software (Fluoview FV500). The images are analyzed by ImageJ 1.43× program (developed by NIH).

[3] = tested on: BSA, HSA, Lysozyme, Pepsin and Trypsin; assay: Selectivity of AcDEVDK-TPE against other proteins; assay type: biochemical; settings: 20 μg mL^−1 protein, 5 μM probe
Procedure: AcDEVDK-TPE was treated with five other enzymes which are widely present in cells, such as BSA, HSA, Lysozyme, Pepsin and Trypsin under the same conditions.

MCF-7 cancer cells = assay: Long term cellular tracking with two-photon fluorescence imaging; assay type: cell-based; settings: 1 μM, 4 h incubation; FTNPs two-photon 800 nm, MTR one-photon 560 nm
Procedure: The performance of FTNPs in MCF-7 cancer cell tracking was investigated and compared with that of commercial Mitotracker red (MTR).
MCF-7 breast cancer cells were cultured in Dulbecco's Modified Eagle Medium (DMEM) containing 10% fetal bovine serum and 1% penicillin streptomycin at 37° C. in a humidified environment containing 5% CO2.
Prior to the experiment, MCF-7 breast cancer cells were pre-cultured until confluence was reached. After incubation with FTNPs and Mitotracker red (MTR) in DMEM medium (FBS-free) at 1 μM T1 and MTR for 4 h at 37° C., respectively, the corresponding cells were detached by 1× tripsin and suspended in culture medium with different cell densities. The cells were then cultured on round coverslip in 35 mm petri dishes for 0, 1, 2, 3, 4 and 5 days, respectively. After designated time intervals, the medium was removed and the adherent cells were washed twice with 1×PBS buffer, followed by fixation using 75% ethanol for 20 minutes. The cells were further washed twice with 1×PBS buffer and the coverslips were then mounted on glass slides using mounting medium in purpose of long-term storage. […] The detection of two-photon excited fluorescence of FTNPs was achieved by excitation at 800 nm with a 600-800 nm bandpass filter. On the other hand, the one-photon excited fluorescence signal from MTR was collected with a 600-800 nm bandpass filter upon 560 nm excitation.

[4] = tested on: lysozyme, papain, trypsin and BSA; assay: Titration of TPS-2cRGD with other proteins (selectivity); assay type: binding; settings: 100 μg mL^−1 protein
Procedure: (§2) 5 μL of the protein stock solution was diluted with 40 μL of 1×PBS buffer (pH 7.4). 5 μL of TPS-2cRGD (10 μM) was then added and the reaction mixture was incubated at room temperature for 30 min. The reaction mixture was then diluted to a total of 300 μL with deionized water for photoluminescence measurement. The solution was excited at 356 nm, and the emission was collected from 380 to 650 nm.

human integrin αvβ3 = biological target: T3, human integrin αvβ3 (Homo sapiens, UniProt P05106+P06756); assay: Titration of TPS-2cRGD with integrin (fluorescence turn-on); assay type: binding
T3 construct: purchased ImmunoCell
T3 sequence (P06756 31-1048): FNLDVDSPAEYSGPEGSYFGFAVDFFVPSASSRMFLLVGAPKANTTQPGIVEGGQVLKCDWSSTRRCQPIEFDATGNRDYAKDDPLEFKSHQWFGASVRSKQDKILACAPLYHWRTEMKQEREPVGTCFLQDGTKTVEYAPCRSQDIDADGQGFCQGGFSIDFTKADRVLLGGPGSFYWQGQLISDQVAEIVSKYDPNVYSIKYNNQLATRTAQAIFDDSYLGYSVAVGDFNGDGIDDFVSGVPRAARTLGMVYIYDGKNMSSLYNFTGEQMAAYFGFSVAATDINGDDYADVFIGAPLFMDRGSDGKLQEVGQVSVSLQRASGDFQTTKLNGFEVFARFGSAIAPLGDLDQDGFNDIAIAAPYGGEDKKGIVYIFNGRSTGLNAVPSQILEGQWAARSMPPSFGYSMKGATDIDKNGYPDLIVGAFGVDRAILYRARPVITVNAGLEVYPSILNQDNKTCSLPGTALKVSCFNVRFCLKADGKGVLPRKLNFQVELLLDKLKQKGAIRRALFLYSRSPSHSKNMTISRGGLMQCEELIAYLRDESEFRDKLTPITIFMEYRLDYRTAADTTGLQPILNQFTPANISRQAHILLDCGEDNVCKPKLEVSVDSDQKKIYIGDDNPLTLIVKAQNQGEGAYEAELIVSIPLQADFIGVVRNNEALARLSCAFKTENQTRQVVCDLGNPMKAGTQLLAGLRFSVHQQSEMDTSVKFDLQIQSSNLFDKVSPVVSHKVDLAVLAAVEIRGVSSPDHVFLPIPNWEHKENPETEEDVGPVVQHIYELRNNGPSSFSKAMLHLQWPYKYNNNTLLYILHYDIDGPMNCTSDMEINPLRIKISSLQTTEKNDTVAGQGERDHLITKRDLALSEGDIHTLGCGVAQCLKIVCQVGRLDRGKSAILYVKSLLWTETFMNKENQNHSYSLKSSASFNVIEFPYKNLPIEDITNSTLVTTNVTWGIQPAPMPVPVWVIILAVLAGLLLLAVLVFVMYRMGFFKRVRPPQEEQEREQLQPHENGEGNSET
T3 sequence (P05106 27-788): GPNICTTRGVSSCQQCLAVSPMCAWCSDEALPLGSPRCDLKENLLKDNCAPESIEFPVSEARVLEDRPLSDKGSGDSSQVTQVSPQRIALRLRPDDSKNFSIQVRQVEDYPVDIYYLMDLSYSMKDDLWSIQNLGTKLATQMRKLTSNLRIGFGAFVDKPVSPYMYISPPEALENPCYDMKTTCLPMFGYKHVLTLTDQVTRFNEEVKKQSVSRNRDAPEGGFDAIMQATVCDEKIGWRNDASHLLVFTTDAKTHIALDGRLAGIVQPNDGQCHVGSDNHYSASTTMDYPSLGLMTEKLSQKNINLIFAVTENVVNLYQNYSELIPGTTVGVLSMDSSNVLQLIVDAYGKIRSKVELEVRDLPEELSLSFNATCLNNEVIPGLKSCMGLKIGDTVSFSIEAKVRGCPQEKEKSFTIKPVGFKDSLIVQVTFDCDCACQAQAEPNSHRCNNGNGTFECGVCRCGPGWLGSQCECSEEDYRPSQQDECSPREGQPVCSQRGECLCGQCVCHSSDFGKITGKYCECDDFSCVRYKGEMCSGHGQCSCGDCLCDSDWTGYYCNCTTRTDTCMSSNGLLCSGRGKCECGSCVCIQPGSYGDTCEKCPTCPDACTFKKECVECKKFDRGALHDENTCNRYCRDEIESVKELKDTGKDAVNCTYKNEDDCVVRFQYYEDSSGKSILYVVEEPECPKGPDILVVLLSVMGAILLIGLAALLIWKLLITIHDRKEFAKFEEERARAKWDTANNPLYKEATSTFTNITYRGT
Procedure: as §2

[5] = MTT cytotoxicity of TPS-2cRGD; assay type: cell-based; settings: human, HT-29 cancer cells; 2, 5 and 10 μM for 12, 24 and 48 h; read-out: metabolic viability
Procedure: Methylthiazolyldiphenyl-tetrazolium (MTT) assays were used to assess the metabolic activity of HT-29 cancer cells to study the cytotoxicity of TPS-2cRGD. HT-29 cells were seeded in 96-well plates (Costar, Ill., USA) at an intensity of 4×10^4 cells mL^−1. After 24 h incubation, the medium was replaced by the TPS-2cRGD suspension at concentrations of 2, 5, and 10 μM, and the cells were then incubated for 12, 24 and 48 h, respectively. After the designated time intervals, the wells were washed twice with 1×PBS buffer and 100 μL of freshly prepared MTT (0.5 mg mL^−1) solution in culture medium was added into each well. The MTT medium solution was carefully removed after 3 h incubation in the incubator at 37° C. DMSO (100 μL) was then added into each well and the plate was gently shaken to dissolve all the precipitates formed. The absorbance of MTT at 570 nm was monitored by the microplate reader (Genios Tecan). Cell viability was expressed by the ratio of absorbance of the cells incubated with TPS-2cRGD suspension to that of the cells incubated with culture medium only.

HT-29 cells = assay: Real-time uptake imaging of TPS-2cRGD; assay type: cell-based; settings: 2 μM, room temperature
Procedure: HT-29 cells were cultured in the 8-wells chambers (LAB-TEK, Chambered Coverglass System) at 37° C. After 80% confluence, the adherent cells were washed twice with 1×PBS buffer. The TPS-2cRGD solution (2 μM, 0.3 mL) and a small amount of membrane tracker were then added to the chamber. The chambers were placed on the microscope platform immediately and the microscope focused on a collection of cells. The fluorescence images (405 nm excitation and with a band pass 505-525 nm filter for the probe, and 543 nm excitation with a band pass 575-635 nm filter for the membrane tracker) acquired every 5 min.

[6] = tested on: HT-29 colon cancer cells with overexpressed integrin αvβ3; assay: Confocal imaging at 4° C. with TPS-2cRGD; assay type: cell-based
Procedure: (§3) Before the detection of integrin αvβ3, HT-29 and MCF-7 cells were cultured in the chambers (LAB-TEK, Chambered Coverglass System) at 37° C., respectively. After 80% confluence, the adherent cells were washed twice with 1×PBS buffer. The TPS-2cRGD solution (2 μM, 0.3 mL) was then added to the chamber. After incubation for 30 min at 4° C., cells were washed two times with 1×PBS buffer and then treated with membrane tracker for 10 min and further washed twice with 1×PBS buffer. The cells were then imaged immediately by confocal laser scanning microscope (CLSM, Zeiss LSM 410, Jena, Germany) with imaging software (Fluoview FV500). The images are analyzed by ImageJ 1.43× program (developed by NIH). The images were taken upon excitation at 405 nm (5% laser power) with a band pass 505-525 nm filter for the probe, and 543 nm (5% laser power) with a band pass 575-635 nm filter for the membrane tracker.

[7] = tested on: MCF7 breast cancer cells with low integrin αvβ3 expression; assay: Confocal imaging at 4° C. with TPS-2cRGD; assay type: cell-based; settings: 2 μM, 30 min
Procedure: as §3

caspase-3 [8] = biological target: T2, caspase-3; assay: Caspase-3 turn-on and hydrolysis of E/Z-TPE-2DEVD; assay type: biochemical
Procedure: Both have a similar absorption profile with an obvious absorbance in the 270-380 nm range.
The enzyme kinetic studies by incubating recombinant caspase-3 with E/Z-TPE-2DEVD in buffer at 37° C. were subsequently performed, and the changes in probe hydrolysis were monitored with HPLC. DMSO stock solutions of TPE-2DEVD were diluted with caspase-3assay buffer (50 mM PIPES, 100 mM NaCl, 1 mM EDTA, 0.1% w/v CHAPS, 25% w/v sucrose, pH=7.2) to make 10 μM working solutions. 5 μL of the recombinant caspase-3 (˜0.04 μg/μL stock solution in assay buffer) was added into the above working solution. The reaction mixture was incubated at room temperature for 60 min and was then diluted to a total of 300 μL with deionized water for photoluminescence measurement. The solution was excited at 312 nm, and the emission was collected from 360 to 600 nm.

[9] = inferred from weak fluorescence / LLS

## CC(=O)N[C@@H](CC(=O)O)C(=O)N[C@@H](CCC(=O)O)C(=O)N[C@H](C(=O)N[C@@H](CC(=O)O)C(=O)N[C@@H](CCCCNC(=O)CCCc1cn(Cc2ccc(C(=C(c3ccccc3)c3ccccc3)c3ccccc3)cc2)nn1)C(N)=O)C(C)C [AcDEVDK-TPE] (Ac-DEVDK(X1)-NH2)
caspase-7; 0 to 120 min
  fluorescence on incubation with caspase-7: time-dependent increase in fluorescence
caspase-7; 10 μM caspase inhibitor
  fluorescence with caspase-7 pretreated with inhibitor: no fluorescence turn-on
caspase-3 [1]; 0 to 120 min
  fluorescence on incubation with caspase-3: time-dependent increase in fluorescence
caspase-3 [1]; 5 μM probe, 200 pM caspase-3
  fluorescence enhancement with caspase-3: up to ten-fold fluorescence enhancement
caspase-3 [1]; 10 μM caspase inhibitor
  fluorescence with caspase-3 pretreated with inhibitor: no fluorescence turn-on
[2]
  solubility in water: good solubility in water
HeLa cells
  fluorescence in nonapoptotic cells: very weak green fluorescence
HeLa cells; apoptosis induced with staurosporine
  fluorescence in apoptotic cells: strong green fluorescence
[3]
  change of PL intensity with other proteins: very little change of PL intensity

## C[Si]1(C)C(c2ccc(CN=[N+]=[N-])cc2)=C(c2ccccc2)C(c2ccccc2)=C1c1ccc(CN=[N+]=[N-])cc1 [BATPS, 1,1-dimethyl-2,5-bis[4-(azidomethyl)phenyl]-3,4-diphenylsilole]
[2]
  average diameter of nanoaggregates in water (LLS): 103 nm

## ClCc1ccc(C2=c3cc4c5c(c3Oc3c2cc2c6c3CCCN6CCC2)CCC[N+]=5CCC4)cc1.[Cl-] [MTR]
MCF-7 cancer cells
  time over which fluorescence in treated cells is sustained / detectable: 1 days

## C[Si]1(C)C(c2ccc(Cn3cc(C[C@@H]4NC(=O)[C@@H](Cc5ccccc5)NC(=O)[C@H](CC(=O)O)NC(=O)CNC(=O)[C@H](CCCNC(=N)N)NC4=O)nn3)cc2)=C(c2ccccc2)C(c2ccccc2)=C1c1ccc(Cn2cc(C[C@@H]3NC(=O)[C@@H](Cc4ccccc4)NC(=O)[C@H](CC(=O)O)NC(=O)CNC(=O)[C@H](CCCNC(=N)N)NC3=O)nn2)cc1 [TPS-2cRGD]
[4]
  change of PL intensity with other proteins: very little change of PL intensity
[2]
  average diameter of nanoaggregates in water (LLS): no detectable signal
[2]; [9]
  solubility in water: good solubility in water
Human integrin αvβ3; 10 μM probe, integrin 0 to 100 μg mL^−1
  fluorescence enhancement on incubation with integrin αvβ3: up to a seven-fold fluorescence enhancement
Human integrin αvβ3; three times the standard deviation
  limit of detection for integrin αvβ3 in solution: 4 µg/mL
[5]
  viability: ~100%
HT-29 cells
  incubation time after which the probe is gradually internalized within cells: > 25 min
[6]; 2 μM, 30 min, 4° C.
  fluorescent signal of live cells (CLSM): strong fluorescent signal
[6]; 10 μM cyclic RGD peptide, then 2 μM probe
  fluorescent signal after pre-treatment with free cyclic RGD peptide: significantly reduced
[7]
  fluorescent signal of live cells (CLSM): very weak fluorescence

## E-TPE-2DEVD: stereoisomer of Asp-Glu-Val-Asp (DEVD) peptide-conjugated TPE probe (TPE-2DEVD)
[2]; [9]
  solubility in water: good solubility in water
caspase-3 [8]; 10 μM probe, PIPES buffer, caspase-3 100 pM, 37° C.
  fluorescence turn-on with caspase-3: strong fluorescence signals
caspase-3 [8]; recombinant caspase-3 in buffer
  rate of enzyme activated hydrolysis (HPLC): faster
